Results reported in paper PMC8704606, “The Artemiside-Artemisox-Artemisone-M1 Tetrad: Efficacies against Blood Stage P. falciparum Parasites, DMPK Properties, and the Case for Artemiside” (Pharmaceutics, 2021).
Where two headings read alike, the source gives them in different places.

Legend:
[1] = Pharmacokinetics and metabolism after iv and po administration; format: in vivo; conditions: for MRT last: read-out: MRT0-last; for AUC(0-t): up to 7 h
Description: The plasma concentration-time profiles of the parent compounds and metabolites after administration iv and po to male C57/BL6 mice are presented in Figure 2, Figure 3 and Figure 4. Artemiside was quantifiable up to 24 h in all mice dosed iv and up to 7 h po (lower limit of quantitation LLOQ = 1.6 ng/mL or 0.004 μM) (Figure 2). […] For both artemiside and artemisox, the metabolite artemisone was quantifiable up to 3 h in both the po and iv groups (Figure 2 and Figure 3). Thereby it is confirmed that artemiside is rapidly converted via artemisox into artemisone. Artemisone itself was quantifiable up to three hours post dose (Figure 4). The mean circulating concentrations for the compounds and their metabolites are presented in Table S3a–f in the Supplementary Material 1. The metabolite M1 was also detected upon administration of artemiside, artemisox, and artemisone, but it was not quantified here; chromatograms indicating the presence of M1 are illustrated in Figure S3a–c in the Supplementary Material 1. In addition, the plasma concentration-time curves for artemiside and its metabolites artemisone and M1 following iv and po dosing in the same murine model are presented and discussed in detail elsewhere (cf. Figure 4 in reference).
All work was conducted with prior approval of the animal ethics committee of the University of Cape Town in accordance with the South African National Standards for the Care and Use of Animals for Scientific Purposes and guidelines from the South African Department of Health. The requirements and methods for the pharmacokinetics in vivo involving po and iv drug administration, sample extraction, analyses of samples by LC-MS/MS, and data analyses are described elsewhere. For the animal experiments and formulations, the compounds were dissolved in a 10:60:30 mixture of N,N-dimethylacetamide-polypropylene glycol-polyethylene glycol for intravenous dosing (iv) at 5 mg/kg. For the oral dose (po), compounds were individually dosed as a suspension in 0.5% (w/v) hydroxypropylmethylcellulose in water with 0.2% Tween80 at 50 mg/kg to male C57/BL6 mice (n = 3 for each group). For PK sampling, blood samples were collected at predetermined times (0.08, 0.25, 0.5, 1, 3, 5, 7, and 24 h) for both po and iv dosing via tail bleeding into heparinized tubes, centrifuged, and the plasma samples were stored at −80 °C until extraction. For preparation of samples, the frozen plasma samples were thawed and 15 μL was extracted by liquid–liquid extraction using a universal buffer (pH8) containing 10 ng/mL of the internal standard and ethyl acetate, and the extract was vortexed and centrifuged. Calibration standards and quality controls were extracted following the same procedure. Supernatants were dried down, reconstituted, and injected onto the column for LC-MS/MS analysis using an AB SCIEX 5500 QTRAP instrument coupled to an Agilent 1260 HPLC detection system as previously described.

[2] = test system: asexual blood stages of Pf W2 (drug resistant); parameters: method as in PMID 29866868, PMID 31998692; conditions: cited from earlier work
[3] = test system: P. falciparum asexual blood stage artemisinin-resistant clone PL08-009 (5C) carrying the PfKI3 C580Y mutation; parameters: method as in ref S3; conditions: ref S3, cited from earlier work
P. berghei sporozoites = conditions: cited from earlier work
[4] = test system: CQ-sensitive P. berghei N strain; conditions: cited from earlier work
[5] = test system: type II tachyzoites (PRU-Luc-GFP); conditions: sc 10 mg/kg/d for 8 days; cited from earlier work
[6] = cited from earlier work
[7] = test system: Chinese hamster ovary (CHO) cells; parameters: method as in PMID 29866868, PMID 31998692; conditions: other cell lines including CHO cells; read-out: EC50 cytotoxicity; cited from earlier work
HepG2 = conditions: ref S3, cited from earlier work
[8] = male, C57/BL6, mouse, plasma, iv 5 mg/kg, parent drug
[9] = male, C57/BL6, mouse, plasma, po 50 mg/kg, parent drug

C[C@H]1[C@H](N2CCS(=O)(=O)CC2)O[C@@H]2O[C@@]3(C)CC[C@H]4[C@H](C)CC[C@@H]1[C@@]24OO3 [Artemisone 7, Artemisone]
concentration at 0.25 h ([1]; male, C57/BL6, mouse, plasma, po, 50 mg/kg, 0.25 h after po 50 mg/kg artemisone 7, read-out: Mean po circulating concentration): 1520 nM
concentration at 0.25 h ([1]; male, C57/BL6, mouse, plasma, po, 50 mg/kg, 0.25 h after po 50 mg/kg artemisox 6, read-out: Mean po circulating concentration): 3530 nM
concentration at 0.5 h ([1]; male, C57/BL6, mouse, plasma, po, 50 mg/kg, 0.5 h after po 50 mg/kg artemiside 5, read-out: Mean po circulating concentration): 1790 nM
concentration at 0.5 h ([1]; male, C57/BL6, mouse, plasma, po, 50 mg/kg, 0.5 h after po 50 mg/kg artemisone 7, read-out: Mean po circulating concentration): 1140 nM
concentration at 0.5 h ([1]; male, C57/BL6, mouse, plasma, po, 50 mg/kg, 0.5 h after po 50 mg/kg artemisox 6, read-out: Mean po circulating concentration): 3690 nM
concentration at 1 h ([1]; male, C57/BL6, mouse, plasma, po, 50 mg/kg, 1 h after po 50 mg/kg artemiside 5, read-out: Mean po circulating concentration): 1670 nM
concentration at 1 h ([1]; male, C57/BL6, mouse, plasma, po, 50 mg/kg, 1 h after po 50 mg/kg artemisone 7, read-out: Mean po circulating concentration): 357 nM
concentration at 1 h ([1]; male, C57/BL6, mouse, plasma, po, 50 mg/kg, 1 h after po 50 mg/kg artemisox 6, read-out: Mean po circulating concentration): 3200 nM
concentration at 3 h ([1]; male, C57/BL6, mouse, plasma, po, 50 mg/kg, 3 h after po 50 mg/kg artemiside 5, read-out: Mean po circulating concentration): 179 nM
concentration at 3 h ([1]; male, C57/BL6, mouse, plasma, po, 50 mg/kg, 3 h after po 50 mg/kg artemisone 7, read-out: Mean po circulating concentration): 12 nM
concentration at 3 h ([1]; male, C57/BL6, mouse, plasma, po, 50 mg/kg, 3 h after po 50 mg/kg artemisox 6, read-out: Mean po circulating concentration): 48 nM
concentration at 5 h ([1]; male, C57/BL6, mouse, plasma, po, 50 mg/kg, 5 h after po 50 mg/kg artemisox 6, read-out: Mean po circulating concentration): 7 nM
half-life ([1]; male, C57/BL6, mouse, plasma, po, 50 mg/kg, po 50 mg/kg, parent drug, mean ± SD, read-out: t½ (converted)): 23.4 ± 3 min
clearance ([1]; male, C57/BL6, mouse, plasma, iv 5 mg/kg): 88.3 mL/min/kg
AUC(0-inf) [1, 8]: 2.5 ± 0.6 µM·h
MRT last ([1]; male, C57/BL6, mouse, plasma, iv 5 mg/kg, parent drug, 0-last up to 7 h): 33.6 ± 4.2 min
AUC(0-t) [1, 8]: 2.4 ± 0.6 µM·h
Vd ([1]; male, C57/BL6, mouse, plasma, iv 5 mg/kg, read-out: Vss): 3 ± 0.5 L/kg
bioavailability ([1]; male, C57/BL6, mouse, plasma, po 50 mg/kg vs iv 5 mg/kg, read-out: F (bioavailability)): 4.9 ± 1.7%
Cmax [1, 9]: 1700 ± 400 nM
MRT last [1, 9]: 32.4 ± 7.8 min
AUC(0-t) [1, 9]: 1.1 ± 0.1 µM·h
MAT (mean absorption time = MRTpo–MRTiv) ([1]; po 50 mg/kg): 0 h
IC50 ([2]; asexual blood stage Pf W2, multidrug resistant, SYBR Green I, ± SEM): 1.6 ± 0.4 nM
RI = IC50 W2/IC50 NF54 [2]: 1.36
IC50 ([3]; 36 h life cycle, PfKI3 C580Y): 0.27 nM
IC90 ([3]; 36 h life cycle, PfKI3 C580Y): 0.43 nM
RI = IC50 for PL08-09 (5C)/IC50 for W2 [3]: 0.2
Maximum inhibition % P. berghei sporozoites (P. berghei sporozoites; at 10 µM, ref S3): 93.35±1.76%
IC50 (P. berghei sporozoites; luciferase-expressing P. berghei ANKA GFP-Luc-SMcon sporozoites in HepG2 cells, 48 h, ± SD, ref S3 (7)): 28.3 nM
P. berghei ED90 po ([4]; Peters four-day test, mice, oral daily day 0-3, ref S4 (24)): 3.1 mg/kg
P. berghei ED90 sc ([4]; Peters four-day test, mice, subcutaneous daily day 0-3, ref S4 (24)): 1.5 mg/kg
P. berghei artesunate index po (ED90 artesunate/ED90 compound) ([4]; ref S4): 2.3
P. berghei artesunate index sc (ED90 artesunate/ED90 compound) ([4]; ref S4): 3.2
mice surviving the infection, acute phase [5]: over 50%
neurotoxicity in vivo, effects observed ([6]; 10 mg/kg/d for 14 days by gavage in sesame oil): no effects were observed
neurotoxicity in vivo, effects observed ([6]; 50 mg/kg/d for 14 days by gavage in sesame oil): induced no effects
EC50 [7]: > 241000 nM
EC50 (HepG2; read-out: Cytotoxicity EC50 HepG2): > 50000 nM
SI = EC50 HepG2/IC50 P. berghei sporozoites (HepG2): > 1767
